The structures appear in SMILES notation.

By IC50 is commonly meant the concentration at which inhibition is half-maximal. The low end stands for greater potency in that assay, the high end for weaker potency in that assay.

For the first assay, the target named is Human factor D (Homo sapiens (Human), UniProt P00746). Briefly: Human Factor D Assay. Type of assay: biochemical.
Chain of Human factor D (P00746 26-253): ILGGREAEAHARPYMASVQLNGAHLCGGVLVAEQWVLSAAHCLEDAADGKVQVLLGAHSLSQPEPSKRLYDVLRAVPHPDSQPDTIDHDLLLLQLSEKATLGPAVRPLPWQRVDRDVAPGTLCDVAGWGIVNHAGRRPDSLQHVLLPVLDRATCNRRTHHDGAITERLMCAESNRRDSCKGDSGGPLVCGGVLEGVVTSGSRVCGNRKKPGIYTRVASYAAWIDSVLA
Conditions: not given
The procedure:
Human factor D (purified from human serum, Complement Technology, Inc.) at 80 nM final concentration is incubated with test compound at various concentrations for 5 minutes at room temperature in 50 mM Tris, 1M NaCl, pH 7.5. A synthetic substrate Z-L-Lys-SBzl and DTNB (Ellman's reagent) are added to final concentrations of 100 μM each. The increase in color is recorded at OD405 nm in a microplate in kinetic mode over 30 minutes with 30 second time points in a spectrofluorimeter. IC50 values are calculated by non-linear regression from the percentage of inhibition of complement factor D activity as a function of test compound concentration.
The compound `NC(=O)c1nn(CC(=O)N2C[C@H](F)C[C@H]2C(=O)NCc2cccnc2)c2ccc(-c3ccnnc3)cc12` [Compound 39, 1-(2-((2S,4R)-4-fluoro-2-(pyridin-3-ylmethylcarbamoyl)pyrrolidin-1-yl)-2-oxoethyl)-5-(pyridazin-4-yl)-1H-indazole-3-carboxamide] registered a 50% inhibitory concentration (IC50) of 1 to 10 µM.

`CCN1Cc2ccc(NC(=O)[C@@H]3C[C@@H](F)CN3C(=O)Cn3cc(C(C)=O)c4cc(-c5ccnnc5)ccc43)cc2C1=O` [Compound 49, (2S,4R)-1-(2-(3-acetyl-5-(pyridazin-4-yl)-1H-indol-1-yl)acetyl)-N-(2-ethyl-3-oxoisoindolin-5-yl)-4-fluoropyrrolidine-2-carboxamide] showed an IC50 of 1 to 10 µM.

The same assay, now with this note: human factor D 80 nM, substrate Z-L-Lys-SBzl, DTNB.
In the case of `NC(=O)c1nn(CC(=O)N2C[C@H](F)C[C@H]2C(=O)Nc2c[nH]nc2-c2ccc(Cl)cc2Cl)c2ccc(-c3ccnnc3)cc12` [Compound 94, 1-(2-((2S,4R)-2-(3-(2,4-dichlorophenyl)-1H-pyrazol-4-ylcarbamoyl)-4-fluoropyrrolidin-1-yl)-2-oxoethyl)-5-(pyridazin-4-yl)-1H-indazole-3-carboxamide], the IC50 is > 10 µM.

For the compound `CC(=O)c1cn(CC(=O)N2C[C@@H](F)C[C@@H]2C(=O)NC2CCCN(c3ccccc3Cl)C2=O)c2ccc(-c3ccnnc3)cc12` (stereo partly drawn) [Compound 161, (2R,4S)-1-(2-(3-acetyl-5-(pyridazin-4-yl)-1H-indol-1-yl)acetyl)-N-(1-(2-chlorophenyl)-2-oxopiperidin-3-yl)-4-fluoropyrrolidine-2-carboxamide], the IC50 was < 1 µM.

With `NC(=O)c1nn(CC(=O)N2C[C@H](F)C[C@H]2C(=O)Nc2cccc(Br)n2)c2ccc(-c3ccnnc3)cc12` [Compound 25, 1-(2-((2S,4R)-2-(6-bromopyridin-2-ylcarbamoyl)-4-fluoropyrrolidin-1-yl)-2-oxoethyl)-5-(pyridazin-4-yl)-1H-indazole-3-carboxamide], the IC50 is < 1 µM.

`NC(=O)c1nn(CC(=O)N2C[C@H](F)C[C@H]2C(=O)Nc2noc3cc(C(F)(F)F)ccc23)c2ccc(-c3ccnnc3)cc12` [Compound 112, 1-(2-((2S,4R)-4-fluoro-2-(6-(trifluoromethyl)benzo[d]isoxazol-3-ylcarbamoyl)pyrrolidin-1-yl)-2-oxoethyl)-5-(pyridazin-4-yl)-1H-indazole-3-carboxamide]: the IC50 is > 10 µM.

For `CN1CC=C(c2ccc3c(c2)c(C(N)=O)nn3CC(=O)N2C[C@H](F)C[C@H]2C(=O)Nc2cccc(Br)n2)CC1` [Compound 22, 1-(2-((2S,4R)-2-(6-bromopyridin-2-ylcarbamoyl)-4-fluoropyrrolidin-1-yl)-2-oxoethyl)-5-(1-methyl-1,2,3,6-tetrahydropyridin-4-yl)-1H-indazole-3-carboxamide], the IC50 is < 1 µM.

In the case of `CC(=O)c1cn(CC(=O)N2C[C@H](F)C[C@H]2C(=O)N[C@H]2CCC[C@@H]2OCc2ccccc2)c2ccc(-c3ccnnc3)cc12` [Compound 77, (2S,4R)-1-(2-(3-acetyl-5-(pyridazin-4-yl)-1H-indol-1-yl)acetyl)-N-((1S,2S)-2-(benzyloxy)cyclopentyl)-4-fluoropyrrolidine-2-carboxamide], the IC50 was > 10 µM.

As for `CC(=O)c1cn(CC(=O)N2[C@@H]3C[C@@H]3C[C@H]2C(=O)Nc2cccc(-c3ccccc3Cl)c2F)c2ccc(-c3cncnc3)cc12` [Compound 15, (1R,3S,5R)-2-(2-(3-acetyl-5-(pyrimidin-5-yl)-1H-indol-1-yl)acetyl)-N-(2′-chloro-2-fluorobiphenyl-3-yl)-2-azabicyclo[3.1.0] hexane-3-carboxamide], the IC50 was < 1 µM.

Regarding `CC(=O)c1cn(CC(=O)N2C[C@H](F)C[C@H]2C(=O)Nc2cccc(-c3ccccc3Cl)c2F)c2ccc(N3CCN(S(C)(=O)=O)CC3)cc12` [Compound 33, (2S,4R)-1-(2-(3-acetyl-5-(4-(methylsulfonyl)piperazin-1-yl)-1H-indol-1-yl)acetyl)-N-(2′-chloro-2-fluorobiphenyl-3-yl)-4-fluoropyrrolidine-2-carboxamide], the IC50 was < 1 µM.

On to `CC(=O)c1cn(CC(=O)N2C[C@H](F)C[C@H]2C(=O)Nc2ccc(CNC(=O)OCC3c4ccccc4-c4ccccc43)cc2)c2ccc(-c3ccnnc3)cc12` [Compound 61], for which the IC50 was > 10 µM.

Regarding `Cn1cc(N2CCCC(NC(=O)[C@@H]3C[C@@H](F)CN3C(=O)Cn3nc(C(N)=O)c4cc(-c5ccnnc5)ccc43)C2)cn1` (stereo partly drawn) [Compound 141, 1-(2-((2S,4R)-4-fluoro-2-(1-(1-methyl-1H-pyrazol-4-yl)piperidin-3-ylcarbamoyl)pyrrolidin-1-yl)-2-oxoethyl)-5-(pyridazin-4-yl)-1H-indazole-3-carboxamide], the IC50 was > 10 µM.

With `NC(=O)c1nn(CC(=O)N2C[C@H](F)C[C@H]2C(=O)Nc2cccc(-c3ccccc3Cl)c2F)c2ccc(-c3cn[nH]c3)cc12` [Compound 1], the IC50 is < 1 µM.

`CC(=O)c1cn(CC(=O)N2C[C@H](F)C[C@H]2C(=O)Nc2cncc(Cl)n2)c2ccc(-c3ccnnc3)cc12` [Compound 88, (2S,4R)-1-(2-(3-acetyl-5-(pyridazin-4-yl)-1H-indol-1-yl)acetyl)-N-(6-chloropyrazin-2-yl)-4-fluoropyrrolidine-2-carboxamide]: the IC50 was < 1 µM.

In the case of `Cc1ncc(-c2ccc3c(c2)c(C(N)=O)nn3CC(=O)N2C[C@H](F)C[C@H]2C(=O)Nc2cccc(-c3ccccc3Cl)c2F)cn1` [Compound 103, 1-(2-((2S,4R)-2-(2′-chloro-2-fluorobiphenyl-3-ylcarbamoyl)-4-fluoropyrrolidin-1-yl)-2-oxoethyl)-5-(2-methylpyrimidin-5-yl)-1H-indazole-3-carboxamide], the IC50 was < 1 µM.

Take `CC(=O)c1cn(CC(=O)N2C[C@H](F)C[C@H]2C(=O)Nc2noc(-c3ccccc3Cl)n2)c2ccc(-c3ccnnc3)cc12` [Compound 182, (2S,4R)-1-(2-(3-acetyl-5-(pyridazin-4-yl)-1H-indol-1-yl)acetyl)-N-(5-(2-chlorophenyl)-1,2,4-oxadiazol-3-yl)-4-fluoropyrrolidine-2-carboxamide]: the concentration for half-maximal inhibition (IC50) is < 1 µM.

For the compound `NC(=O)c1nn(CC(=O)N2C[C@H](F)C[C@H]2C(=O)NCc2nc3ccccc3s2)c2ccc(-c3ccnnc3)cc12` [Compound 52, 1-(2-((2S,4R)-2-(benzo[d]thiazol-2-ylmethylcarbamoyl)-4-fluoropyrrolidin-1-yl)-2-oxoethyl)-5-(pyridazin-4-yl)-1H-indazole-3-carboxamide], the IC50 was > 10 µM.

`CC(=O)c1cn(CC(=O)N2C[C@H](F)C[C@H]2C(=O)Nc2ccccc2-n2nccc2C)c2ccc(-c3ccnnc3)cc12` [Compound 72, (2S,4R)-1-(2-(3-acetyl-5-(pyridazin-4-yl)-1H-indol-1-yl)acetyl)-4-fluoro-N-(2-(5-methyl-1H-pyrazol-1-yl)phenyl)pyrrolidine-2-carboxamide]: the IC50 is > 10 µM.

As for `CC(=O)c1cn(CC(=O)N2C[C@H](F)C[C@H]2C(=O)Nc2cccc(Br)n2)c2ccc(-c3cccc(Cl)c3)cc12` [Compound 119, (2S,4R)-1-(2-(3-acetyl-5-(3-chlorophenyl)-1H-indol-1-yl)acetyl)-N-(6-bromopyridin-2-yl)-4-fluoropyrrolidine-2-carboxamide], the IC50 was < 1 µM.

Turning to `CCN1Cc2ccc(NC(=O)[C@@H]3C[C@@H](F)CN3C(=O)Cn3nc(C(N)=O)c4cc(-c5ccnnc5)ccc43)cc2C1=O` [Compound 48, 1-(2-((2S,4R)-2-(2-ethyl-3-oxoisoindolin-5-ylcarbamoyl)-4-fluoropyrrolidin-1-yl)-2-oxoethyl)-5-(pyridazin-4-yl)-1H-indazole-3-carboxamide], the IC50 is > 10 µM.

Turning to `CC(=O)c1cn(CC(=O)N2C[C@H](F)C[C@H]2C(=O)Nc2cccc3c2NC(=O)C(C)O3)c2ccc(-c3ccnnc3)cc12` (stereo partly drawn) [Compound 153, (2S,4R)-1-(2-(3-acetyl-5-(pyridazin-4-yl)-1H-indol-1-yl)acetyl)-4-fluoro-N-(2-methyl-3-oxo-3,4-dihydro-2H-benzo[b][1,4]oxazin-5-yl)pyrrolidine-2-carboxamide], the IC50 is > 10 µM.

As for `CC(=O)c1cn(CC(=O)N2[C@@H]3C[C@@H]3C[C@H]2C(=O)Nc2cccc(Br)n2)c2ccc(-c3cncnc3)cc12` [Compound 17, (1R,3S,5R)-2-(2-(3-acetyl-5-(pyrimidin-5-yl)-1H-indol-1-yl)acetyl)-N-(6-bromopyridin-2-yl)-2-azabicyclo[3.1.0] hexane-3-carboxamide], the IC50 is < 1 µM.

For the compound `NC(=O)c1nn(CC(=O)N2C[C@H](F)C[C@H]2C(=O)Nc2cccc(Br)n2)c2ccc(-c3ccc(N4CCOCC4)cc3)cc12` [Compound 3, 1-(2-((2S,4R)-2-((6-Bromopyridin-2-yl)carbamoyl)-4-fluoropyrrolidin-1-yl)-2-oxoethyl)-5-(4-morphlinophenyl)-1H-indazole-3-carboxamide], the IC50 was < 1 µM.

`CC(=O)c1cn(CC(=O)N2C[C@H](F)C[C@H]2C(=O)Nc2cccc(-c3ccccc3Cl)c2F)c2ccc(N3CCN(c4ncc(F)cn4)CC3)cc12` [Compound 32, (2S,4R)-1-(2-(3-acetyl-5-(4-(5-fluoropyrimidin-2-yl)piperazin-1-yl)-1H-indol-1-yl)acetyl)-N-(2′-chloro-2-fluorobiphenyl-3-yl)-4-fluoropyrrolidine-2-carboxamide]: the IC50 was < 1 µM.

With `NC(=O)c1nn(CC(=O)N2C[C@H](F)C[C@H]2C(=O)Nc2ccc3ncsc3c2)c2ccc(-c3ccnnc3)cc12` [Compound 50, 1-(2-((2S,4R)-2-(benzo[d]thiazol-6-ylcarbamoyl)-4-fluoropyrrolidin-1-yl)-2-oxoethyl)-5-(pyridazin-4-yl)-1H-indazole-3-carboxamide], the IC50 is > 10 µM.

Values taken from patent US9796741B2 (Achillion Pharmaceuticals, Inc., priority 2014, dated 2017).
